Source: the NIST ThermoML archive (doi:10.1016/j.tca.2009.02.022)

Tests used:
[1] = 303.15 K, 101.33 kPa, Liquid; for viscosity: Capillary tube (Ostwald / Ubbelohde) method; for mass density: Vibrating tube method
[2] = xn = mol fraction of the nth substance listed; settings: 303.15 K, 101 kPa, Liquid; for viscosity: Capillary tube (Ostwald / Ubbelohde) method; for mass density: Vibrating tube method

CCCCO [butan-1-ol]
[1]
Settings	mass density [kg/m3]	viscosity [mPa·s]
–	801.9	2.25

C1CCCCC1 [cyclohexane]
[1]
Settings	mass density [kg/m3]	viscosity [mPa·s]
–	769.12	0.821

CCOC(C)=O [ethyl acetate]
[1]
Settings	mass density [kg/m3]	viscosity [mPa·s]
–	888.5	0.4

CCOC(C)=O [ethyl acetate] + CCCCO
[2]
Settings	mass density [kg/m3]	viscosity [mPa·s]
x2 = 0.1411	875.69	0.467
x2 = 0.3184	859.95	0.563
x2 = 0.3797	854.67	0.609
x2 = 0.4659	847.1	0.673
x2 = 0.5634	838.65	0.766
x2 = 0.6782	828.8	0.92
x2 = 0.7595	821.86	1.076
x2 = 0.8312	815.82	1.287
x2 = 0.9291	807.64	1.736

CCCCCCCCO [octan-1-ol]
[1]
Settings	mass density [kg/m3]	viscosity [mPa·s]
–	817.52	6.19

CCCCCCCCO [octan-1-ol] + C1CCCCC1
[2]
Settings	mass density [kg/m3]	viscosity [mPa·s]
x1 = 0.2008	780.75	1.242
x1 = 0.3755	789.9	1.792
x1 = 0.5205	796.98	2.4
x1 = 0.6054	800.89	2.847
x1 = 0.7044	805.34	3.46
x1 = 0.7758	808.38	3.983
x1 = 0.8541	811.63	4.633
x1 = 0.901	813.56	5.089
x1 = 0.9553	815.75	5.664

CCCCCCCCO [octan-1-ol] + CCOC(C)=O
[2]
Settings	mass density [kg/m3]	viscosity [mPa·s]
x1 = 0.0809	878.16	0.537
x1 = 0.162	869.16	0.68
x1 = 0.3257	854.09	1.028
x1 = 0.4413	845.4	1.314
x1 = 0.5431	838.72	1.596
x1 = 0.6637	831.83	2.04
x1 = 0.7062	829.6	2.26
x1 = 0.8574	822.7	3.545
x1 = 0.9251	820.07	4.563

CCCCCO [pentan-1-ol]
[1]
Settings	mass density [kg/m3]	viscosity [mPa·s]
–	807.11	2.839

CCCCCO [pentan-1-ol] + CCOC(C)=O
[2]
Settings	mass density [kg/m3]	viscosity [mPa·s]
x1 = 0.1095	877.42	0.474
x1 = 0.2164	867.46	0.541
x1 = 0.3291	857.43	0.626
x1 = 0.4303	848.83	0.722
x1 = 0.5202	841.5	0.829
x1 = 0.6103	834.44	0.97
x1 = 0.7187	826.3	1.211
x1 = 0.8051	820.09	1.508
x1 = 0.9009	813.46	2.017
